Results on 10 compounds are retold here after ChEMBL document CHEMBL1201862, “PubChem BioAssay data set” (2004).

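In this assay, cells in 96-well plates receive the compound at five concentrations for 48 hours. Endpoints are linearly interpolated between the surrounding concentrations. GI50 marks 50% less growth.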 Active and inactive are the calls of the source. No stated cut-off is given here; in the data, active = GI50 up to about 1.1 µM and inactive = higher.

Experiment in all cases: NCI-60 cell line screen, 48 h
Experiment [1] has as its system HT-29.
The test system of experiment [2] is UO-31.
The subject of experiment [3] is U-251.
The test system of experiment [4] is OVCAR-8.
The test system of experiment [5] is HCT-116.
The subject of experiment [6] is PC-3.
Experiment [7] concerns T47D.
Experiment [8] deals with Hs-578T.
Experiment [9] has as its system NCI/ADR-RES.
Experiment [10] deals with Malme-3M.
Experiment [11] has as its system OVCAR-4.
Experiment [12] relates to TK-10.
In experiment [13] the test system is SR.
For experiment [14], the system named is BT-549.
Experiment [15] concerns CAKI-1.
The test system of experiment [16] is SK-MEL-5.
The test system of experiment [17] is SK-OV-3.
The test system of experiment [18] is SN12C.
In experiment [19] the test system is HCC 2998.

As for `CN(/N=C(\C(=O)O)c1ccccc1)C1=NCCCCN1`, the GI50 in experiment [1], in experiment [2], in [3], in [4], in experiment [5] and in [6] was > 100 µM (inactive) throughout. The GI50 in experiment [7], in experiment [8], in [9], in [10], in experiment [11] and in experiment [12] was > 100 µM (inactive) throughout. Besides, the GI50 in experiment [13], in experiment [14], in experiment [15], in [16], in experiment [17] and in [18] was > 100 µM (inactive) throughout. Besides, in [19], the GI50 is > 100 µM (inactive).

As to `O=C(Nc1nn(C(=O)c2ccc(Cl)cc2)c(=O)s1)c1ccc(Cl)cc1`, the GI50 in experiment [1], in experiment [2], in [3], in experiment [4], in [5] and in experiment [6] was > 100 µM (inactive) throughout. The GI50 in experiment [7], in experiment [8], in experiment [9], in [10], in experiment [11] and in experiment [12] was > 100 µM (inactive) each time. For the same compound, the GI50 in experiment [13], in [14], in experiment [15], in experiment [16], in experiment [17] and in [18] was > 100 µM (inactive) throughout. For the same compound, the GI50 in experiment [19] is > 100 µM (inactive).

`Cc1ccc2c(O)cc(-c3cccs3)nc2n1`: the GI50 in [1] is 16.2 µM (inactive); in experiment [2], 8.61 µM (inactive); in [3], 12.1 µM (inactive); in experiment [4], 18.2 µM (inactive); in experiment [5], 4.81 µM (inactive); in experiment [6], 11 µM (inactive). For the same compound, the GI50 in experiment [7] was 6.64 µM (inactive); in [8], 11.6 µM (inactive); in experiment [9], 2.9 µM (inactive); in experiment [10], 15.3 µM (inactive); in [11] it was > 90.6 µM (inactive); in experiment [12], > 100 µM (inactive). In addition, the GI50 in experiment [13] is 2.05 µM (inactive); in [14], > 100 µM (inactive); in experiment [15] it was 15.4 µM (inactive); in experiment [16] it was 4.72 µM (inactive); in [17], 30.3 µM (inactive); in experiment [18], 19.1 µM (inactive). In addition, the GI50 in [19] was 12.9 µM (inactive).

On to `CC(=O)O[C@@H](C1C[C@@H](C)[C@H]2[C@@](O)(O1)[C@H](O)[C@@]1(C)C3=CC[C@H]4C(C)(C)[C@@H](OC5OCC(O)C(O)C5O)CC[C@@]45C[C@@]35CC[C@]21C)C(C)(C)O` (stereo not given in full), for which the GI50 in experiment [1] was 25.8 µM (inactive); in experiment [2], 30.2 µM (inactive); in experiment [3] it was 16.8 µM (inactive); in [4], 29.8 µM (inactive); in experiment [5], 18.1 µM (inactive); in [6] it was 21.7 µM (inactive). For the same compound, the GI50 is 23.7 µM (inactive) in experiment [7]; 30.1 µM (inactive) in experiment [8]; 46.8 µM (inactive) in experiment [9]; 23.8 µM (inactive) in experiment [10]; 33.9 µM (inactive) in experiment [11]; 22.6 µM (inactive) in [12]. Further, the GI50 is 14.7 µM (inactive) in experiment [13]; 26.7 µM (inactive) in [14]; 38.7 µM (inactive) in experiment [15]; 17.8 µM (inactive) in [16]; 26.5 µM (inactive) in [17]; 22.8 µM (inactive) in experiment [18]. For the same compound, in [19], the GI50 is 14.3 µM (inactive).

`COc1ccc(Cc2cc(OC)c(OC)c(OC)c2)cc1`: the GI50 in [1] was 0.124 µM (active); in experiment [2] it was 0.766 µM (active); in experiment [3], 0.261 µM (active); in experiment [4], 0.504 µM (active); in experiment [5] it was 0.207 µM (active); in [6] it was 0.234 µM (active). Moreover, the GI50 in [7] is 30.8 µM (inactive); in experiment [8], 0.215 µM (active); in experiment [9], 0.146 µM (active); in experiment [10], 0.387 µM (active); in experiment [11], 10.6 µM (inactive); in [12], 6.79 µM (inactive). The GI50 is 0.0436 µM (active) in experiment [13]; 1.54 µM (inactive) in experiment [14]; 0.254 µM (active) in experiment [15]; 0.167 µM (active) in [16]; 0.308 µM (active) in experiment [17]; 0.671 µM (active) in experiment [18]. Further, the GI50 in [19] is 0.226 µM (active).

As for `COc1ccc2c(c1)OC(c1cccnc1)C(c1ccccc1)C2=O` (stereo not given), the GI50 in experiment [1] is > 100 µM (inactive); in [2], > 100 µM (inactive); in experiment [3], 43.8 µM (inactive); in [4] it was 80.2 µM (inactive); in experiment [5], 97.5 µM (inactive); in experiment [6] it was > 100 µM (inactive). Moreover, the GI50 in experiment [7] is > 100 µM (inactive); in experiment [8], 54 µM (inactive); in [9] it was > 100 µM (inactive); in experiment [10], > 100 µM (inactive); in experiment [11], > 100 µM (inactive); in experiment [12], > 100 µM (inactive). In addition, the GI50 is > 100 µM (inactive) in [13]; > 100 µM (inactive) in [14]; > 100 µM (inactive) in experiment [15]; > 100 µM (inactive) in experiment [16]; 59.4 µM (inactive) in experiment [17]; > 100 µM (inactive) in experiment [18]. The GI50 in [19] is > 100 µM (inactive).

For `O=C(O)CC(C(=O)O)C1c2ccccc2-c2ccccc21` (stereo not given), the GI50 in [1] was > 100 µM (inactive); in experiment [2], > 100 µM (inactive); in experiment [3], 39.3 µM (inactive); in experiment [4], 67 µM (inactive); in experiment [5], > 100 µM (inactive); in experiment [6], > 100 µM (inactive). In addition, the GI50 in experiment [7] was 20.2 µM (inactive); in experiment [8] it was > 100 µM (inactive); in experiment [9], > 100 µM (inactive); in experiment [10] it was 58.6 µM (inactive); in [11] it was > 100 µM (inactive); in experiment [12], > 100 µM (inactive). The GI50 in experiment [13] was 37.5 µM (inactive); in experiment [14], > 100 µM (inactive); in [15], 66.1 µM (inactive); in experiment [16] it was > 100 µM (inactive); in experiment [17], 66.8 µM (inactive); in experiment [18], > 100 µM (inactive). In addition, in [19], the GI50 is > 100 µM (inactive).

On to `C/C(=N\N=C(/S)N(C)C)c1cccc[n+]1[O-]`, for which the GI50 in [1] was 3.05 µM (inactive); in [2] it was 23.2 µM (inactive); in [3], 44.3 µM (inactive); in [4] it was 23.7 µM (inactive); in experiment [5], 0.489 µM (active); in experiment [6], 15.4 µM (inactive). Further, the GI50 in experiment [7] was 0.413 µM (active); in [8] it was 92.9 µM (inactive); in experiment [9] it was 2.05 µM (inactive); in experiment [10], 43.7 µM (inactive); in experiment [11], 46.8 µM (inactive); in [12], 82.2 µM (inactive). Moreover, the GI50 in [13] was 1.23 µM (inactive); in experiment [14] it was 49.9 µM (inactive); in experiment [15], 32.4 µM (inactive); in experiment [16] it was 27.7 µM (inactive); in experiment [17], 70.5 µM (inactive); in experiment [18], 79.1 µM (inactive). Also, the GI50 in experiment [19] was 19.9 µM (inactive).

As to `O=C(O)c1[nH]c2c([N+](=O)[O-])cc([N+](=O)[O-])cc2c1C(=O)O`, the GI50 in experiment [1], in experiment [2], in [3], in experiment [4], in [5] and in [6] was > 100 µM (inactive) each time. The GI50 in experiment [7], in experiment [8], in experiment [9], in experiment [10], in experiment [11] and in [12] was > 100 µM (inactive) each time. Also, the GI50 in experiment [13] was 75.5 µM (inactive); in experiment [14], > 100 µM (inactive); in [15] it was > 100 µM (inactive); in experiment [16], > 100 µM (inactive); in experiment [17], > 100 µM (inactive); in experiment [18] it was > 100 µM (inactive). In addition, in experiment [19], the GI50 is > 100 µM (inactive).

For `O=C(C[n+]1ccc2ccccc2c1)c1ccc2ccc3ccccc3c2c1`, the GI50 in [1] was 1.03 µM (active); in experiment [2] it was 4.69 µM (inactive); in experiment [3] it was 2.21 µM (inactive); in experiment [4], 3.21 µM (inactive); in experiment [5], 0.959 µM (active); in experiment [6] it was 2.84 µM (inactive). Further, the GI50 in experiment [7] is 4.74 µM (inactive); in experiment [8], 8.32 µM (inactive); in experiment [9], 15.2 µM (inactive); in experiment [10] it was 7.71 µM (inactive); in experiment [11], 3.84 µM (inactive); in experiment [12], 1.4 µM (inactive). Besides, the GI50 is 0.406 µM (active) in [13]; 11.2 µM (inactive) in experiment [14]; 4.9 µM (inactive) in experiment [15]; 3.03 µM (inactive) in experiment [16]; 6.82 µM (inactive) in experiment [17]; 1.91 µM (inactive) in [18]. For the same compound, the GI50 in [19] is 1.66 µM (inactive).
